Activity calls are given as the source filed them.

19 compounds from ChEMBL document CHEMBL3880409, “Pharmaceutical compositions and their methods of use” (2008) can be followed below.

The target in data set [1] is T1, Neuronal acetylcholine receptor; alpha4/beta2 (Homo sapiens) (UniProt P17787+P43681). Nature of the data set: Positive allosteric modulation at human alpha4beta2 nAChR expressed in HEK293 cells assessed as potentiation of 5-[(2R)-azetidin-2-ylmethoxy]-2-chloropyridine-induced calcium flux preincubated for 5 mins followed by agonist addition measured for 3 to 5 mins by FLIPR assay relative to control. The data set is classed as cell-based. Also on record: concentration or dose not given beside the values. On the technique in general: Calcium flux is commonly read through the fluorescence of an indicator in the cells.

Data set [2] has as its target T1, Neuronal acetylcholine receptor; alpha4/beta2 (Homo sapiens). Nature of the data set: Positive allosteric modulation at human alpha4beta2 nAChR expressed in HEK293 cells assessed as potentiation of (3R)-1-pyridin-3-ylpyrrolidin-3-amine-induced calcium flux preincubated for 5 mins followed by agonist addition measured for 3 to 5 mins by FLIPR assay relative to control. Further details: concentration or dose not given beside the values. Type of data set: cell-based.

The target is the same in data set [3]. The data set can be described thus: Positive allosteric modulation at human alpha4beta2 nAChR expressed in HEK293 cells assessed as potentiation of 5-[(2R)-azetidin-2-ylmethoxy]-2-chloropyridine-induced calcium flux at 10 uM preincubated for 5 mins followed by agonist addition measured for 3 to 5 mins by FLIPR assay relative to control. Type of data set: cell-based.

Data set [4] in a line: Toxicity in ferret assessed as emesis at 3.5 umol/kg after 30 mins measured for 90 mins. Further details: species or system Mustela putorius furo. The settings on record: in vivo, 1.5 h.
Data set [5] concerns Rattus norvegicus. Nature of the data set: Potentiation of 5-[(2R)-Azetidin-2-yl methoxy]-2-chloropyridine-induced antinociceptive activity in Sprague-Dawley rat assessed as reversal of tight ligation of L5-L6 spinal nerves-mediated mechanical allodynia by measuring paw withdrawal threshold at 10 mg/kg, ip administered prior to agonist treatment measured after 30 mins (reference value: 24%). Type of data set: functional.

Data set [6] relates to Rattus norvegicus. The data set can be described thus: Potentiation of 3 umol/kg of (1S,5S)-3-(3,6-diaza-bicyclo[3.2.0]hept-3-yl)-quinoline-induced antinociceptive activity in Sprague-Dawley rat assessed as reversal of tight ligation of L5-L6 spinal nerves-mediated mechanical allodynia by measuring paw withdrawal threshold at 35 umol/kg, ip administered prior to agonist treatment measured after 30 mins. The data set is classed as functional.

Data set [7] deals with T1, Neuronal acetylcholine receptor; alpha4/beta2 (Homo sapiens). The data set can be described thus: Positive allosteric modulation at human alpha4beta2 nAChR expressed in HEK293 cells assessed as potentiation of (1S,5S)-3-(3,6-diaza-bicyclo[3.2.0]hept-3-yl)-quinoline-induced calcium flux preincubated for 5 mins followed by agonist addition measured for 3 to 5 mins by FLIPR assay. The data set is classed as cell-based.

In data set [8] the test system is Rattus norvegicus. Nature of the data set: Potentiation of 5-[(2R)-Azetidin-2-yl methoxy]-2-chloropyridine-induced antinociceptive activity in ip dosed Sprague-Dawley rat assessed as reversal of tight ligation of L5-L6 spinal nerves-mediated mechanical allodynia by measuring paw withdrawal threshold administered prior to agonist treatment measured after 30 mins. The data set is classed as functional.

Data set [9] has as its target T1, Neuronal acetylcholine receptor; alpha4/beta2 (Homo sapiens). Nature of the data set: Positive allosteric modulation at human alpha4beta2 nAChR expressed in HEK293 cells assessed as potentiation of 2-methyl-3-(2-(S)-pyrrolidinylmethoxy)pyridine-induced calcium flux preincubated for 5 mins followed by agonist addition measured for 3 to 5 mins by FLIPR assay. Type of data set: cell-based.

The test system of data set [10] is Rattus norvegicus. Nature of the data set: Potentiation of 30 umol/kg of (1S,5S)-3-(3,6-diaza-bicyclo[3.2.0]hept-3-yl)-quinoline-induced antinociceptive activity in Sprague-Dawley rat assessed as reversal of tight ligation of L5-L6 spinal nerves-mediated mechanical allodynia by measuring paw withdrawal threshold at 35 umol/kg, ip administered prior to agonist treatment measured after 30 mins. The data set is classed as functional.

The target in data set [11] is T1, Neuronal acetylcholine receptor; alpha4/beta2 (Homo sapiens). The data set can be described thus: Positive allosteric modulation at human alpha4beta2 nAChR expressed in HEK293 cells assessed as potentiation of (3R)-1-pyridin-3-ylpyrrolidin-3-amine-induced calcium flux at 10 uM preincubated for 5 mins followed by agonist addition measured for 3 to 5 mins by FLIPR assay relative to control. Type of data set: cell-based.

In data set [12] the test system is Rattus norvegicus. The data set can be described thus: Potentiation of 5-[(2R)-Azetidin-2-yl methoxy]-2-chloropyridine-induced antinociceptive activity in Sprague-Dawley rat assessed as reversal of tight ligation of L5-L6 spinal nerves-mediated mechanical allodynia by measuring increase in paw withdrawal threshold at 3.5 umol/kg, ip administered prior to agonist treatment measured after 30 mins. The data set is classed as functional, organism-based.

A short description of data set [13]: Toxicity in ferret assessed as emesis at 3.5 umol/kg administered 30 mins prior to agonist treatment measured for 90 mins in presence of 5-[(2R)-Azetidin-2-yl methoxy]-2-chloropyridine. Further details: species or system Mustela putorius furo. The settings on record: in vivo, 1.5 h.
The target in data set [14] is T1, Neuronal acetylcholine receptor; alpha4/beta2 (Homo sapiens). Nature of the data set: Positive allosteric modulation at human alpha4beta2 nAChR expressed in HEK293 cells assessed as potentiation of varenicline-induced calcium flux preincubated for 5 mins followed by agonist addition measured for 3 to 5 mins by FLIPR assay. The data set is classed as cell-based.

For data set [15] the target is unchanged. Nature of the data set: Positive allosteric modulation at human alpha4beta2 nAChR expressed in HEK293 cells assessed as potentiation of ispronicline-induced calcium flux preincubated for 5 mins followed by agonist addition measured for 3 to 5 mins by FLIPR assay. Type of data set: cell-based.
In data set [16] the test system is Rattus norvegicus. The data set can be described thus: Antinociceptive activity in Sprague-Dawley rat assessed as reversal of tight ligation of L5-L6 spinal nerves-induced mechanical allodynia by measuring paw withdrawal threshold at 500 umol/kg, ip measured after 30 mins. Type of data set: functional.

As for `O=c1ccc(-c2noc(-c3cccnc3)n2)c[nH]1`, the Activity in data set [1] and in data set [2] was 120 to 150% in each case.
Consider `Oc1cncc(-c2nc(-c3cccnc3)no2)c1`, for which the Activity in data set [1] and in data set [2] was 90 to 120% in each case.
`N#Cc1cccc(-c2noc(-c3ccc(Cl)nc3)n2)c1`: the Activity in data set [1] and in data set [2] was 150 to 200% each time.
For the compound `Fc1cccc(-c2nc(-c3cccnc3)no2)c1F`, the Activity in [1] and in data set [2] was 200 to 400% throughout.
Regarding `Fc1ccc(-c2nc(-c3cccnc3)no2)cc1F`, the Activity in data set [1] and in [2] was 200 to 400% each time.
As to `c1cncc(-c2noc(-c3cccnc3)n2)c1`, the Activity in data set [1] and in [2] was 200 to 400% each time.
For `CS(=O)(=O)c1cccc(-c2nc(-c3cccnc3)no2)c1`, the Activity in [1] and in data set [2] was 120 to 150% each time.
`N#Cc1cccc(-c2nc(-c3cccnc3)no2)c1`: the Activity in data set [3] is 200 to 400%; in data set [4], “Non-Toxic”; with Rattus norvegicus [5], 76%; with Rattus norvegicus [6] it was 41%; with Rattus norvegicus [8], “Dose-dependent effect”; with Rattus norvegicus [8] (record 2), 33 - 63%. Also, the Activity in the data set on Rattus norvegicus [10] is 56%; in [11] it was 200 to 400%; in data set [13] it was “Non-Toxic”. Also, the fold change (FC) in data set [3] and in [11] was 10 to 100 throughout. For the same compound, the result (in data set [7]; in data set [9]; in the data set with Rattus norvegicus [12]; in data set [14]; in data set [15]) was Active.
`NCC1(CC(=O)O)CCCCC1` [GABAPENTIN]: the Activity in the data set with Rattus norvegicus [16] came out at 58%.
For the compound `Cc1ccc(-c2noc(-c3cccc(C#N)c3)n2)cn1`, the Activity in [1] and in [2] was 150 to 200% throughout.
In the case of `CC(=O)c1cccc(-c2nc(-c3cccnc3)no2)c1`, the Activity in data set [1] and in data set [2] was 150 to 200% in each case.
Consider `N#Cc1cccc(-c2noc(-c3cccnc3)n2)c1`, for which the Activity in data set [1] and in data set [2] was 200 to 400% throughout.
Consider `Clc1cc(-c2noc(-c3cccnc3)n2)ccn1`, for which the Activity in data set [1] and in data set [2] was 120 to 150% each time.
With `N#Cc1cccc(-c2noc(-c3ccc(F)nc3)n2)c1`, the Activity in data set [1] and in [2] was 150 to 200% throughout.
As for `c1cc(-c2noc(-c3cccnc3)n2)cc(-c2nnn[nH]2)c1`, the Activity in [1] and in data set [2] was 90 to 120% in each case.
`NS(=O)(=O)c1cccc(-c2nc(-c3cccnc3)no2)c1`: the Activity in data set [1] and in data set [2] was 200 to 400% throughout.
`Brc1cncc(-c2nc(-c3cccnc3)no2)c1`: the Activity in data set [1] and in data set [2] was 120 to 150% in each case.
`O=[N+]([O-])c1cccc(-c2nc(-c3cccnc3)no2)c1`: the Activity in data set [1] and in [2] was 200 to 400% each time.
For the compound `N#Cc1ccc(-c2nc(-c3cccnc3)no2)cc1`, the Activity in data set [1] and in data set [2] was 150 to 200% in each case.
